Read-outs that look alike come from different tables or passages of the source.
Key:
Type in all cases: in vivo
[1] = test system: cotton aphid (Aphis gossypi); test: Cotton aphid foliar spray test on squash (CA 200); details: 72 h, squash cotyledons, 3 days, Corrected % Control (Abbott), read-out: CA 200: % control against cotton aphid in foliar spray tests
Description: The compounds identified in TABLE 2 were prepared using the procedures illustrated in the previous examples and these compounds were tested against beet armyworm, mosquito, fruit fly, and cotton aphid using protocols described after. […]
Squash with fully expanded cotyledon leaves were trimmed to one cotyledon per plant and infested with cotton aphid (wingless adult and nymph) 1 day prior to chemical application.
Each plant is examined before chemical application to ensure proper infestation (ca. 30-70 aphids per plant). Compounds (3 mg) were dissolved in 3 mL of acetone:methanol (50:50) solvent, forming stock solutions of 1000 ppm. The stock solutions were then diluted with 0.025% Tween 20 (in H2O) to make […]. A hand-held Devilbiss sprayer was used to apply the spray solutions until runoff to both sides of the squash cotyledon leaves. Four plants (4 replications) were used for each concentration of each compound. Reference plants (solvent check) were sprayed with 0.025% Tween 20 only. Treated plants were held in a holding room for 3 days at approximately 23° C. and 40% RH before the number of live aphids on each plant was recorded. Insecticidal activity was measured by Corrected % Control using Abbott's correction formula and presented in TABLE 2: Corrected % Control=100*(X−Y)/X • where X=No. of live aphids on solvent check plants • Y=No. of live aphids on treated plants

[2] = test system: fruit fly (Drosophila melanogaster) adults; test: Adult fruit fly mortality on artificial diet (DROSME); details: 72 h, read-out: DROSME: % mortality against adult fruit fly on artificial diet
Description: (§1) The compounds identified in TABLE 2 were prepared using the procedures illustrated in the previous examples and these compounds were tested against beet armyworm, mosquito, fruit fly, and cotton aphid using protocols described after.
(§2) Compounds were evaluated on mosquito (Aedes aegypti) larvae, beet armyworm (Spodoptera exigua) larvae, fruit fly (Drosophila melanogaster) adults and cotton aphid (Aphis gossypi). Newly hatched mosquito larvae (about 50 larvae/well) in 96-well microtiter plates in 230 ul of water containing powdered liver/yeast extract (1 gr/100 ml) were treated with 20 ppm solution of the test compound. Following treatment the plates were covered with a lid and mortality was determined three days after treatment. Beet armyworm eggs (about 5 per well) were placed on artificial diet (in a 96-well microtiter plate) treated with a 4000 ppm solution of a test compound in combination with piperonyl butoxide (in approximate ratio of 1:4). After infestation, the plates were covered with a lid and mortality was determined seven days following treatment. Five-day old fruit fly adults (about 5/well) were placed in deep-well microtiter plates containing 250 ul/well of a 2% agar-10% sucrose mixture that had been treated with a 4000 ppm solution of a test compound. Following infestation, the plates were covered with a lid and mortality was determined three days after treatment. Treatments for the mosquito and armyworm were replicated six times each, that of the fruit fly three times each.

[3] = test system: mosquito (Aedes aegypti) larvae; test: Mosquito larvae mortality (AEDSAE); details: 72 h, read-out: AEDSAE: % mortality against mosquito larvae
Description: as §1, §2

[4] = test system: beet armyworm (Spodoptera exigua) larvae; test: Beet armyworm mortality on artificial diet (LAPHEG); details: 168 h, read-out: LAPHEG: % mortality against beet armyworm on artificial diet
Description: as §1, §2

[5] = 4000 μg/ml, mortality three days after treatment
[6] = 20 μg/ml, mortality three days after treatment
[7] = 4000 μg/ml, with piperonyl butoxide (approx. 1:4), mortality seven days after treatment

SMILES | pest or weed control at 200 ppm [1] [%] | mortality at 4000 µg/mL [2, 5] [%] | mortality at 20 µg/mL [3, 6] [%] | mortality at 4000 µg/mL [4, 7] [%] | mortality at 4000 µg/mL [2] [%] | mortality at 20 µg/mL [3] [%] | mortality at 4000 µg/mL [4] [%]
CC(C)(C)OC(=O)N1CCN(CCc2ccccc2C(F)(F)F)CC1 [Compound 96] | 50 to 100 | 1 to 25 | 1 to 25 | 26 to 49 | – | – | –
O=C(c1ccccc1)c1ccc(CN2CCN(C(=O)C3CC3)CC2)cc1 [Compound 321] | – | 1 to 25 | 1 to 25 | 1 to 25 | – | – | –
O=C(OCc1ccccc1)N1CCN(C(=O)c2ccc3ccccc3n2)CC1 [Compound 159] | – | 1 to 25 | 1 to 25 | 1 to 25 | – | – | –
FC(F)(F)c1ccccc1CCN1CCN(Cc2ccccc2Cl)CC1 [Compound 101] | 50 to 100 | 1 to 25 | 1 to 25 | 1 to 25 | – | – | –
O=C(OCc1ccccc1)N1CCN(Cc2ccc(Cl)nc2)CC1 [Compound 192] | – | 1 to 25 | 1 to 25 | 1 to 25 | – | – | –
O=C(COc1ccccc1)N1CCN(C(=O)OCc2ccccc2)CC1 [Compound 139] | – | 1 to 25 | 1 to 25 | 26 to 49 | – | – | –
FC(F)(F)c1ccccc1CCN1CCN(Cc2cc3c(cc2Cl)OCO3)CC1 [Compound 86] | 50 to 100 | 1 to 25 | 26 to 49 | 1 to 25 | – | – | –
COC(=O)c1cccc(CN2CCN(CCc3ccccc3)CC2)c1 [Compound 90] | 50 to 100 | 26 to 49 | 1 to 25 | 1 to 25 | – | – | –
N#Cc1cccc(CN2CCN(CCc3ccccc3)CC2)c1 [Compound 17, 3-{[4-(2-phenylethyl)piperazin-1-yl]methyl}benzonitrile] | 1 to 25 | 26 to 49 | 1 to 25 | 1 to 25 | – | – | –
O=C(Cc1ccc(Cl)cc1)N1CCN(Cc2ccccc2)CC1 [Compound 38] | 50 to 100 | – | – | – | 1 to 25 | 1 to 25 | 1 to 25
FC(F)(F)c1ccc(CN2CCN(CCc3ccccc3C(F)(F)F)CC2)o1 [Compound 87] | 26 to 49 | 1 to 25 | 1 to 25 | 1 to 25 | – | – | –
CC(=O)c1ccccc1C(=O)N1CCN(CCc2ccccc2C(F)(F)F)CC1 [Compound 105] | 50 to 100 | 1 to 25 | 1 to 25 | 1 to 25 | – | – | –
Clc1cc2c(cc1CN1CCN(CCOc3ccccc3)CC1)OCO2 [Compound 103] | 50 to 100 | 1 to 25 | 1 to 25 | 1 to 25 | – | – | –
O=C(c1ccc(-c2ccccn2)s1)N1CCN(CCc2ccccc2C(F)(F)F)CC1 [Compound 126] | 50 to 100 | 1 to 25 | 1 to 25 | 1 to 25 | – | – | –
Cc1nn(C)c2sc(C(=O)N3CCN(CCc4ccccc4C(F)(F)F)CC3)cc12 [Compound 160] | 1 to 25 | 1 to 25 | 1 to 25 | 1 to 25 | – | – | –
FC(F)(F)Oc1cccc(CN2CCN(CCc3ccccc3)CC2)c1 [Compound 91] | 1 to 25 | 26 to 49 | 1 to 25 | 1 to 25 | – | – | –

SMILES | pest or weed control at 200 ppm [1] [%] | mortality at 4000 µg/mL [2, 5] [%] | mortality at 20 µg/mL [3, 6] [%] | mortality at 4000 µg/mL [4, 7] [%] | mortality at 4000 µg/mL [2] [%] | mortality at 20 µg/mL [3] [%] | mortality at 4000 µg/mL [4] [%]
FC(F)(F)c1ccccc1CCN1CCN(CC2COc3ccccc3O2)CC1 (centres unmarked) [Compound 100] | 50 to 100 | 26 to 49 | 1 to 25 | 1 to 25 | – | – | –
COc1ccc(CN2CCN(CCc3ccccc3C(F)(F)F)CC2)cc1Cl [Compound 95] | 50 to 100 | 26 to 49 | 1 to 25 | 1 to 25 | – | – | –
O=C(c1ccc2ccccc2n1)N1CCN(CCc2ccccc2C(F)(F)F)CC1 [Compound 156] | 50 to 100 | 1 to 25 | 1 to 25 | 1 to 25 | – | – | –
FC(F)(F)c1ccccc1CCN1CCN(Cc2ccc3c(c2)OCO3)CC1 [Compound 107] | 50 to 100 | 50 to 100 | 1 to 25 | 1 to 25 | – | – | –
Cc1nn(C)c2sc(C(=O)N3CCN(C(C)c4ccccc4)CC3)cc12 (centres unmarked) [Compound 162] | – | 26 to 49 | 1 to 25 | 1 to 25 | – | – | –
COC(=O)c1cccc(CN2CCN(CCOc3ccccc3)CC2)c1 [Compound 303] | – | 26 to 49 | 1 to 25 | 1 to 25 | – | – | –
Clc1cc2c(cc1CN1CCN(CCc3ccccc3)CC1)OCO2 [Compound 104] | 50 to 100 | 50 to 100 | 1 to 25 | 1 to 25 | – | – | –
O=C(c1ccc(Cl)cc1)N1CCN(Cc2ccccc2)CC1 [Compound 44] | 1 to 25 | 1 to 25 | 1 to 25 | 1 to 25 | – | – | –
Clc1cc2c(cc1CN1CCN(CCC3CCCCC3)CC1)OCO2 [Compound 102] | 50 to 100 | 1 to 25 | 1 to 25 | 1 to 25 | – | – | –
COc1cc(CN2CCN(CCc3ccccc3C(F)(F)F)CC2)c([N+](=O)[O-])cc1OC [Compound 99] | 50 to 100 | 1 to 25 | 1 to 25 | 1 to 25 | – | – | –
COc1ccc(CN2CCN(CCc3ccccc3C(F)(F)F)CC2)c(Cl)c1OC [Compound 108] | 50 to 100 | 1 to 25 | 1 to 25 | 1 to 25 | – | – | –
O=C(c1coc2ccccc12)N1CCN(Cc2ccccc2)CC1 [Compound 50] | 50 to 100 | 1 to 25 | 1 to 25 | 1 to 25 | – | – | –
O=C(c1ccco1)N1CCN(Cc2ccccc2)CC1 [Compound 34] | – | 1 to 25 | 1 to 25 | 1 to 25 | – | – | –
CC(CN1CCN(Cc2cc3c(cc2Cl)OCO3)CC1)c1ccccc1 (centres unmarked) [Compound 333] | 50 to 100 | 50 to 100 | 1 to 25 | 1 to 25 | – | – | –
O=C(OCc1ccccc1)N1CCN(C(=O)c2cccs2)CC1 [Compound 146] | – | 1 to 25 | 1 to 25 | 1 to 25 | – | – | –

— patent publication US8338430B2, “N-substituted piperazines” (Dow AgroSciences, LLC., priority 2005, dated 2012)
